Source: PMC11451537, “P2X7 receptors exhibit at least three modes of allosteric antagonism” (Science Advances, 2024)
Numbering of substitutions follows the chain as printed.

What was measured:
[1] = molecular target: T1, rP2X7-K297V (Rattus norvegicus, UniProt Q64663, K297V); assay: TEVC inhibition dose-response, rP2X7-K297V mutant; format: cell-based; settings: signals evoked by 300 μM ATP, read-out: IC50 (inhibitory potency), K297V
T1 sequence (Q64663 1-595 K297V): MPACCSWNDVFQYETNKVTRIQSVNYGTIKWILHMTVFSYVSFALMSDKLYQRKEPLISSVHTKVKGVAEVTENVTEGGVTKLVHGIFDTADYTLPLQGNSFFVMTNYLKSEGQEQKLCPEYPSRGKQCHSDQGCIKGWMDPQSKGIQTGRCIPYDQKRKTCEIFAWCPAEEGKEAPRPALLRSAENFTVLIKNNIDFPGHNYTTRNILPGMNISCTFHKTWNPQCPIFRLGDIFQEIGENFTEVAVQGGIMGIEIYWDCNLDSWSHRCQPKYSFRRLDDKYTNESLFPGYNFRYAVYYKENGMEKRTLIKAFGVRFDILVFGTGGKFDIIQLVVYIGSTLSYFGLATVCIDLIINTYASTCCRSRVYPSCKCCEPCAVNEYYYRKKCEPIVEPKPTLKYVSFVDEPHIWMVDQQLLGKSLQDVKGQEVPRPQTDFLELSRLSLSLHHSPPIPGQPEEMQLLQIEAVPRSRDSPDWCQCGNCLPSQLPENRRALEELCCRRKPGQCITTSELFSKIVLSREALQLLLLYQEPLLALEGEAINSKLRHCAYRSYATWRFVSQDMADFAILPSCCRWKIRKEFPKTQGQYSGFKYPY
From the text: (§1) Structural determination of the full-length, wild-type rP2X7 was completed using a construct previously described containing no truncations or mutations ([16]). Furthermore, the rP2X7-WT construct used for electrophysiology experiments is unmodified full-length, wild-type rP2X7 with no green fluorescent protein (GFP), protease sites, or affinity tags present. The hP2X1-WT, hP2X2-WT, hP2X3-WT, hP2X4-WT, and hP2X7-WT constructs used for electrophysiology are similarly unmodified full-length, wild-type receptor constructs with no GFP, protease sites, or affinity tags present. Mutations to the rP2X7-WT construct used for electrophysiology experiments were made directly in the pcDNA3.1x plasmid. These constructs included the following: rP2X7-K297A, rP2X7-K297G, rP2X7-K297M, rP2X7-K297Q, rP2X7-K297V, rP2X7-Y298A, rP2X7-Y298G, rP2X7-Y298V, rP2X7-Y298L, rP2X7-R316A, rP2X7-R316G, rP2X7-R316Q, rP2X7-R316H, rP2X7-F88A, rP2X7-F103A, and rP2X7-Y295A.
(§2) To evaluate the inhibitory response of an antagonist for a dilution series, an initial excitatory signal was evoked at a subtype-specific concentration of ATP. Next, the antagonist was applied at a test concentration for 60 s and then coapplied at the same test concentration of the antagonist with the identical subtype-specific concentration of ATP. The antagonized signal was then normalized against the preceding excitatory signal evoked by ATP for each individual oocyte tested. The pre- and post-antagonist signals were evoked by 10 μM ATP for hP2X1, 10 μM ATP for hP2X2, 1 μM ATP for hP2X3, 50 μM ATP for hP2X4, and 100 μM ATP for P2X7. For the K297V mutation in rP2X7, pre- and post-antagonist signals were evoked by 300 μM ATP. Each dataset was then fit to a nonlinear regression named “[inhibitor] vs. response – Variable slope (four parameters)” in GraphPad Prism 9 to produce a sigmoidal curve and afford an IC50 value. Each singular condition was used to generate an average which is reported plus or minus its SD between three discrete trials.

[2] = molecular target: T2, rP2X7-F88A (Rattus norvegicus, UniProt Q64663, F88A); assay: TEVC inhibition dose-response, rP2X7-F88A mutant; format: cell-based; settings: read-out: IC50 (inhibitory potency), F88A
T2 sequence (Q64663 1-595 F88A): T1 sequence (Q64663 1-595 K297V) with F88A, V297K
From the text: as §1, §2

[3] = molecular target: T3, rP2X7 (Rattus norvegicus, UniProt Q64663); assay: TEVC recovery of current after complete inhibition (IC100), rP2X7; settings: 120 s buffer wash, 100 μM ATP
T3 sequence (Q64663 1-595): T1 sequence (Q64663 1-595 K297V) with V297K
Method: Ecocyte Bioscience supplied defolliculated oocytes which were promptly resuspended in modified Barth’s solution containing the following: 88 mM NaCl, 1 mM KCl, 0.82 mM MgSO4, 0.33 mM Ca(NO3)2·4H2O, 0.41 mM CaCl2·2H2O, 2.4 mM NaHCO3, and 5 mM Hepes supplemented with amikacin 250 (mg/liter) and gentamycin (150 mg/liter). Xenopus laevis oocytes were then injected with either hP2X1 (50 nl of 100 ng/μl), hP2X2 (50 nl of 50 ng/μl), hP2X3 (50 nl of 400 ng/μl), hP2X4 (50 nl of 200 ng/μl), hP2X7 (50 nl of 10 ng/μl), or rP2X7 (50 nL of 20 ng/μl or 50 ng/μl) mRNA created from linearized full-length, wild-type or mutant pcDNA 3.1x according to the protocol provided in the mMESSAGE mMACHINE kit (Invitrogen). After injection, the oocytes were allowed to express protein for ~20 hours before recording was performed. Oocytes expressing hP2X4 were allowed to express protein for ~48 hours.
All TEVC data were acquired with an Ooctye Clamp OC-725C amplifier, pClamp 8.2 software, and a gravity-fed RSC-200 Rapid Solution Changer that flowed buffer at ~5 ml/min. For recording, Sutter filamented glass (10 cm in length with an inner diameter of 0.69 mm and an outer diameter of 1.2 mm) was used to impale oocytes and clamp the holding voltage at −60 mV. Recordings for hP2X1, hP2X2, hP2X7, and rP2X7 were performed in buffer with the following: 100 mM NaCl, 2.5 mM KCl, 0.1 mM EDTA, 0.1 mM flufenamic acid, and 5 mM Hepes at pH 7.4. Recordings for hP2X3 and hP2X4 were performed in buffer with the following: 10 mM Hepes (pH 7.4), 140 mM NaCl, 5 mM KCl, 2 mM CaCl2, 2 mM MgCl2, and 10 mM glucose. For TEVC experiments with P2X7, oocytes expressing hP2X7 or rP2X7 were facilitated with 100 μM ATP before recording the final data.
After testing an oocyte with a brief 100 μM ATP excitatory current, an antagonist is applied for 40, 120, or 240 s at IC100 calculated from IC50 values. The oocyte is then treated with 20 s of antagonist at the IC100 plus 100 μM ATP to see complete antagonism. This is followed by 120 s of washing with buffer, ending with a 20-s reapplication of 100 μM ATP. The signal after the reapplication of ATP was then compared to the initial excitatory current to afford a percentage of recovery of activation after complete antagonism. Experiments were run in triplicate. Trials were averaged and errors were reported as SD.

Compound: Clc1cccc(-c2nnnn2Cc2cccnc2)c1Cl [A438079]
- IC50 [1]: 110 ± 90 nM
- IC50 [2]: 14000 ± 1000 nM
- Recovery of activation (% of baseline current) ([3]; rP2X7, 40-s IC100 application): 81 ± 5%
- Recovery of activation (% of baseline current) ([3]; rP2X7, 120-s IC100 application): 48 ± 15%
- Recovery of activation (% of baseline current) ([3]; rP2X7, 240-s IC100 application): 50 ± 11%

Compound: O=C(NCC1(N2CCN(c3ccccc3)CC2)CCOCC1)c1cccnc1Sc1ccccc1 [JNJ47965567]
- IC50 [1]: 21 ± 6 nM
- IC50 [2]: 800 ± 100 nM
- Recovery of activation (% of baseline current) ([3]; rP2X7, 40-s IC100 application): 1.4 ± 0.2%
- Recovery of activation (% of baseline current) ([3]; rP2X7, 120-s IC100 application): 1.6 ± 1%
- Recovery of activation (% of baseline current) ([3]; rP2X7, 240-s IC100 application): 2 ± 1%

Compound: CN1C(=O)CC[C@H]1C(=O)NCc1cccc(C(F)(F)F)c1Cl [GSK1482160]
- IC50 [1]: 1300 ± 400 nM
- IC50 [2]: 13000 ± 3000 nM
- Recovery of activation (% of baseline current) ([3]; rP2X7, 40-s IC100 application): 69 ± 4%
- Recovery of activation (% of baseline current) ([3]; rP2X7, 120-s IC100 application): 45 ± 6%
- Recovery of activation (% of baseline current) ([3]; rP2X7, 240-s IC100 application): 29 ± 9%

Compound: O=C(NCC12CC3CC(CC(C3)C1)C2)c1cc(CCCNCCCO)ccc1Cl [AZD9056]
- IC50 [1]: 12 ± 1 nM
- IC50 [2]: 130 ± 10 nM
- Recovery of activation (% of baseline current) ([3]; rP2X7, 40-s IC100 application): 82 ± 5%
- Recovery of activation (% of baseline current) ([3]; rP2X7, 120-s IC100 application): 47 ± 9%
- Recovery of activation (% of baseline current) ([3]; rP2X7, 240-s IC100 application): 29 ± 15%

Compound: O=S(=O)(O)c1ccc(N=C2C=CC(=C(c3ccc(Nc4ccc(S(=O)(=O)O)cc4)cc3)c3ccc(Nc4ccc(S(=O)(=O)O)cc4)cc3)C=C2)cc1 [methyl blue]
- IC50 [1]: 4000 ± 1000 nM
- IC50 [2]: 5000 ± 2000 nM
- Recovery of activation (% of baseline current) ([3]; rP2X7, 40-s IC100 application): 53 ± 4%
- Recovery of activation (% of baseline current) ([3]; rP2X7, 120-s IC100 application): 15 ± 5%
- Recovery of activation (% of baseline current) ([3]; rP2X7, 240-s IC100 application): 4 ± 1%

Compound: Clc1cccc(-n2nnnc2NCc2ccccc2Oc2ccccn2)c1Cl [A839977]
- IC50 [1]: 3.2 ± 0.6 nM
- IC50 [2]: 1900 ± 200 nM
- Recovery of activation (% of baseline current) ([3]; rP2X7, 40-s IC100 application): 67 ± 6%
- Recovery of activation (% of baseline current) ([3]; rP2X7, 120-s IC100 application): 6.7 ± 2%
- Recovery of activation (% of baseline current) ([3]; rP2X7, 240-s IC100 application): 1.4 ± 0.3%
